Data as given in PubChem BioAssay (NCI).
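48-hour exposure; five concentrations; linearly interpolated endpoints. Here, GI50 denotes the concentration required for 50% inhibition of growth. Definition used: TGI = concentration required for complete inhibition of growth.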

Legend:
Assay in all cases: growth of human tumour cells (NCI), 48 h
EKVX NSCLC = tested on: EKVX NSCLC
HCT-116 colon = tested on: HCT-116 colon
LOX IMVI melanoma = tested on: LOX IMVI melanoma
MALME-3M melanoma = tested on: MALME-3M melanoma
NCI-H226 lung = tested on: NCI-H226 lung
NCI-H522 lung = tested on: NCI-H522 lung
SK-MEL-2 melanoma = tested on: SK-MEL-2 melanoma
SN12C renal = tested on: SN12C renal
MDA-MB-435 = tested on: MDA-MB-435
RPMI-8226 leukemia = tested on: RPMI-8226 leukemia

SMILES	TGI (EKVX NSCLC)	TGI (HCT-116 colon)	TGI (LOX IMVI melanoma)	TGI (MALME-3M melanoma)	TGI (NCI-H226 lung)	TGI (NCI-H522 lung)	TGI (SK-MEL-2 melanoma)	TGI (SN12C renal)	TGI (MDA-MB-435)	TGI (RPMI-8226 leukemia)	GI50 (EKVX NSCLC)	GI50 (HCT-116 colon)	GI50 (LOX IMVI melanoma)	GI50 (MALME-3M melanoma)	GI50 (NCI-H226 lung)	GI50 (NCI-H522 lung)	GI50 (RPMI-8226 leukemia)	GI50 (SK-MEL-2 melanoma)	GI50 (SN12C renal)
CN(c1ccccc1)c1c(-c2ccccc2)c(=O)oc2c1ccc1occc12	> 100 µM	> 100 µM	> 100 µM	> 100 µM	2.85 µM	> 100 µM	> 100 µM	> 100 µM											
Cc1nc2ccccc2n1CCc1nc2ccccc2[nH]1	> 100 µM	> 100 µM	> 100 µM	> 100 µM	> 100 µM	> 100 µM	> 100 µM	> 100 µM	> 100 µM	> 100 µM									
CC12CC(=O)NN=C1c1ccccc1C2 (centres undefined)	> 100 µM	> 100 µM	> 100 µM	> 100 µM	> 100 µM	> 100 µM	> 100 µM	> 100 µM		> 100 µM									
NC(=S)NS(=O)(=O)c1ccc(Cl)cc1Cl	> 100 µM	> 100 µM	> 100 µM	> 100 µM	> 100 µM	> 100 µM	> 100 µM	> 100 µM	> 100 µM	> 100 µM									
CC[N+]1(C)CCC(O)(/C=C/c2ccc(Cl)c(Cl)c2)C(C(=O)/C=C/c2ccc(Cl)c(Cl)c2)C1 (centres undefined)	23.3 µM	3 µM	2.84 µM	4.6 µM	14.6 µM	3.34 µM	11.4 µM	3.61 µM	5.01 µM	5.7 µM									
O=c1c2cc(Cl)ccc2n2nnc3ccc(NCCNCCO)c1c32	4.44 µM	2.33 µM	1.96 µM	5.67 µM	4.13 µM	3.03 µM	5.01 µM	2.88 µM	2.36 µM	10.2 µM									
C=CC(=O)N1C/C(=C\c2ccc(F)cc2)C(=O)/C(=C/c2ccc(F)cc2)C1	3.88 µM	0.105 µM	0.415 µM	2.41 µM	8.78 µM	1.94 µM	2.69 µM	0.936 µM	1.29 µM										
CC(C)(CN1CCCCC1)C(=O)CC(SCCS(=O)(=O)O)c1ccc(Cl)c(Cl)c1 (centres undefined)	18 µM	10.6 µM		22.1 µM	39.1 µM	5.59 µM	57.3 µM		4.57 µM	7.03 µM									
Cn1c(=O)c2[nH]cnc2n(C)c1=O	> 100 µM	> 100 µM	> 100 µM	> 100 µM	> 100 µM	> 100 µM	> 100 µM	> 100 µM		> 100 µM									
Cc1ccc(N=Nc2cc(=O)[nH]c(=O)[nH]2)cc1C	34.7 µM	22.5 µM	3.36 µM	27.5 µM	41.8 µM			18.6 µM	26.8 µM	14 µM									
Oc1cc(Br)cc2cc(Br)cnc12	37.4 µM	> 100 µM	> 100 µM	58.2 µM	86.5 µM	8.2 µM		73 µM	> 100 µM	30.2 µM									
CC1Oc2c(c(O)cc3oc(=O)cc(-c4ccccc4)c23)C(=O)C1C (centres undefined)	> 100 µM		> 100 µM	> 100 µM	> 100 µM	> 100 µM	> 100 µM	> 100 µM		> 100 µM									
NCCCN1CCN(CCCNc2ccc3ncn4c5ccccc5c(=O)c2c34)CC1	9.03 µM	18.3 µM	4.07 µM	6.27 µM		1.52 µM	13.3 µM	3.68 µM	> 25 µM	> 25 µM									
CC(C)=CCC/C(C)=C/CCC1(C)C2COC(=O)C21 (centres undefined)	> 100 µM	> 100 µM	89 µM	> 100 µM	> 100 µM	> 100 µM	> 100 µM	> 100 µM	> 100 µM										
Cc1ccc(NC(=O)NC23CC4CC(CC(F)(C4)C2)C3)cc1	> 100 µM	> 100 µM	> 100 µM	> 100 µM		> 100 µM	> 100 µM			90.2 µM									
CCSc1nn(-c2c3ccccc3nc3ccccc23)c(=S)s1	> 100 µM	> 100 µM	> 100 µM		> 100 µM	> 100 µM	> 100 µM	> 100 µM	> 100 µM	> 100 µM									
O.O=[Se](=O)(O)O.[NH-]C1CCCCC1[NH-].[Pt+2] (centres undefined)	> 100 µM	> 100 µM	> 74.7 µM	44 µM	25.7 µM	> 59.4 µM	> 100 µM	> 100 µM		> 31.6 µM	36.1 µM	4.36 µM	8.21 µM	8.23 µM	5.21 µM	13.7 µM	1.12 µM	22.9 µM	23.3 µM
COc1ccc(CNc2cnc3cc(N)ccc3n2)cc1OC	> 100 µM	> 100 µM	> 100 µM	> 100 µM	> 100 µM	> 100 µM	> 100 µM	> 100 µM		> 100 µM									
CC(C)(C)OC(=O)N[C@@H](Cc1ccccc1)C(=O)N1CC[C@@H](C(=O)N2[C@H]3CC4CC[C@@]3(CS2(=O)=O)C4(C)C)N1		> 100 µM	> 100 µM		> 100 µM		> 100 µM	> 100 µM	> 100 µM	> 100 µM									
O=c1oc2ccccc2cc1-c1nc2ccccc2s1	39.2 µM		24.2 µM	9.2 µM	33 µM	21.5 µM	60.2 µM	> 50.7 µM	18.1 µM	> 85 µM									
CC(=O)Nc1[nH]c(=O)[nH]c(=O)c1N(C(C)=O)C(C)=O	> 100 µM	> 100 µM	> 100 µM	> 100 µM	> 100 µM		> 100 µM	> 100 µM		> 100 µM									
O=C(c1ccccc1)c1ccc2c(c1)N=C(c1ccc(Cl)c(Cl)c1)CC(c1ccc3ccccc3c1)N2 (centres undefined)	> 100 µM	> 100 µM	> 100 µM		> 100 µM	> 100 µM	> 100 µM	> 100 µM		> 100 µM									
CCn1c2ccccc2c2cc(NC(=O)c3c(C)[nH]c(=O)[nH]c3=S)ccc21		> 100 µM	> 100 µM	> 100 µM	> 100 µM		> 100 µM	> 100 µM	84 µM	> 100 µM									
